The record followed here is patent US6559173B1, “3-(heteroarylamino)methylene-1,3-dihydro-2H-indol-2-ones as kinase inhibitors” (Allergan, Inc., priority 2001, dated 2003).

Experiment [1] concerns the target T1, cytoplasmic domain of the human VEGF receptor (VEGFR-2) (Homo sapiens, UniProt P35968).
T1 construct: The cytoplasmic domain of the human VEGF receptor (VEGFR-2) was expressed as a Histidine-tagged fusion protein; His tag (Histidine-tagged fusion); made in house; host or cells: insect cells (engineered baculovirus)
Description: KDR Assay. As to conditions: His-VEGFR-2, 3.6 μM ATP, poly-Glu-Tyr (4:1). The class given is biochemical. The method, then: The cytoplasmic domain of the human VEGF receptor (VEGFR-2) was expressed as a Histidine-tagged fusion protein following infection of insect cells using an engineered baculovirus. His-VEGFR-2 was purified to homogeneity, as determined by SDS-PAGE, using nickel resin chromatography. Kinase assays were performed in 96 well microtiter plates that were coated overnight with 30 μg of poly-Glu-Tyr (4:1) in 10 mM Phosphate Buffered Saline (PBS), pH 7.2-7.4. The plates were incubated with 1% BSA and then washed four times with PBS prior to starting the reaction. Reactions were carried out in 120 μL reaction volumes containing 3.6 μM ATP in kinase buffer (50 mM Hepes buffer pH 7.4, 20 mM MgCl2, 0.1 mM MnCl2 and 0.2 mM Na3VO4). Test compounds were reconstituted in 100% DMSO and added to the reaction to give a final DMSO concentration of 5%. Reactions were initiated by the addition 0.5 ng of purified protein. Following a ten minute incubation at 25° C., the reactions were washed four times with PBS containing 0.05% Tween-20. 100 μl of a monoclonal anti-phosphotyrosine antibody-peroxidase conjugate was diluted 1:10000 in PBS-Tween-20 and added to the wells for 30 minutes. Following four washes with PBS-Tween-20, 100 μl of 0-Phenylenediamine Dihydrochloride in Phosphate-citrate buffer, containing urea hydrogen peroxide, was added to the wells for 7 minutes as a colorimetric substrate for the peroxidase. The reaction was terminated by the addition of 100 μl of 2.5N H2SO4 to each well and read using a microplate ELISA reader set at 492 nm. IC50 values for compound inhibition were calculated directly from graphs of optical density (arbitrary units) versus compound concentration following subtraction of blank values.

For experiment [2], the system named is VEGF induced increases in intracellular calcium levels in HUVEC (human umbilical vein endothelial cells). Briefly: VEGF Stimulated Ca++ signal assay (FLIPR). The class given is cell-based. As to conditions: VEGF 5 ng/mL; for inhibition at 10 µM: 30 min pre-incubation; for IC50: 0.01 to 10.0 μM. The method, then: VEGF Stimulated Ca^++ Signal in vitro
Automated FLIPR (Fluorometric Imaging Plate Reader) technology was used to screen for inhibitors of VEGF induced increases in intracellular calcium levels in fluorescent dye loaded endothelial cells. HUVEC (human umbilical vein endothelial cells) (Clonetics) were seeded in 96-well fibronectin coated black-walled plates overnight @ 37° C./5%CO2. Cells were loaded with calcium indicator Fluo-4 for 45 minutes at 37° C. Cells were washed 4 times (Original Cell Wash, Labsystems) to remove extracellular dye. Test compounds were reconstituted in 100% DMSO and added to the cells to give a final DMSO concentration of 0.1%. For screening, cells were pre-incubated with test agents for 30 minutes, at a single concentration (10 μM) or at concentrations ranging from 0.01 to 10.0 μM followed by VEGF stimulation (5 ng/mL). Changes in fluorescence at 516 nm were measured simultaneously in all 96 wells using a cooled CCD camera. Data were generated by determining max-min fluorescence levels for unstimulated, stimulated, and drug treated samples. IC50 values for test compounds were calculated from % inhibition of VEGF stimulated responses in the absence of inhibitor.

T1 sequence (P35968 786-1356 limits assumed): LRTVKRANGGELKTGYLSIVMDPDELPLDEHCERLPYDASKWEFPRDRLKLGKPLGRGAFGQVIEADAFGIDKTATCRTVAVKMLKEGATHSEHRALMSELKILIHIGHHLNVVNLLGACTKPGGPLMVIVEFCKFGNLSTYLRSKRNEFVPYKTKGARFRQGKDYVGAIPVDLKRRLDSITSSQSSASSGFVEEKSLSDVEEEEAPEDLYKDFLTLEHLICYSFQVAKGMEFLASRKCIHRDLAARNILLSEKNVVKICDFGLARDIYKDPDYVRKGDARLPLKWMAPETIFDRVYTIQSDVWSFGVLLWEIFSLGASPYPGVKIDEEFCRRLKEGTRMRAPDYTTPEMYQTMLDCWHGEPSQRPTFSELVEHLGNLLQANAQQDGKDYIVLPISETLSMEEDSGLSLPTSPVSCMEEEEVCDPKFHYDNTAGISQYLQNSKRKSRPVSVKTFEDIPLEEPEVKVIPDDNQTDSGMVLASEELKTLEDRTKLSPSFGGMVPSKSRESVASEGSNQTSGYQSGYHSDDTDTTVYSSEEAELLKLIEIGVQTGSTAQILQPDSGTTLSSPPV

As to `Cc1onc(NC=C2C(=O)Nc3ccccc32)c1Br` [Example 42, 3-[(4-Bromo-5-methyl-isoxazol-3-ylamino)-methylene]-1,3-dihydro-indol-2-one], the 50% inhibitory concentration (IC50) (usually the concentration needed to halve the response being measured) in experiment [1] stood at 1910 nM. Moreover, the inhibition (as a rule, the relative decrease from the control value, in per cent) at 10 µM in experiment [2] (Homo sapiens) is 0.3%.
Take `CN(C)c1ccc(-c2cc(NC=C3C(=O)Nc4ccccc43)[nH]n2)cc1` [Example 35, 3-{[5-(4-Dimethylamino-phenyl)-2H-pyrazol-3-ylamino]-methylene}-1,3-dihydro-indol-2-one]: the half-inhibitory concentration (IC50) in experiment [1] amounted to 3490 nM. Also, in experiment [2] (Homo sapiens), the inhibition at 10 µM is 93% and the IC50 amounted to 3060 nM.
The corresponding values for `O=C1Nc2ccc(Cl)cc2C1=CNc1cc(-c2ccco2)[nH]n1` [Example 10, 3-[(5-Furan-2-yl-1H-pyrazol-3-ylamino)-methylene]-5-chloro-1,3-dihydro-indol-2-one] are 1030 nM, 76% and 3230 nM.
In the case of `Cc1oc(C(C)(C)C)cc1-c1cc(NC=C2C(=O)Nc3ccccc32)n(C)n1` [Example 47, 3-{[5-(5tert-Butyl-2-methyl-furan-3-yl)-2-methyl-2H-pyrazol-3-ylamino]-methylene}-1,3-dihydro-indol-2-one], in experiment [1], the IC50 amounted to 2510 nM. In experiment [2] (Homo sapiens), the inhibition at 10 µM worked out at 79.7% and the IC50 was 5920 nM.
Consider `COc1ccccc1-c1cc(NC=C2C(=O)Nc3ccccc32)[nH]n1` [Example 37, 3-{[5-(2-Methoxy-phenyl)-2H-pyrazol-3-ylamino]-methylene}-1,3-dihydro-indol-2-one], for which 12700 nM corresponded to half-maximal inhibition in experiment [1] (IC50). Also, in experiment [2] (Homo sapiens), the inhibition at 10 µM came to 13.6%.
In experiment [1], `COc1cccc(-c2cc(NC=C3C(=O)Nc4ccccc43)[nH]n2)c1` [Example 33, 3-{[5-(3-Methoxy-phenyl)-2H-pyrazol-3-ylamino]-methylene}-1,3-dihydro-indol-2-one] showed an IC50 of 1430 nM. In addition, in experiment [2] (Homo sapiens), the inhibition at 10 µM was determined as 92.9% and the concentration for half-maximal inhibition (IC50) turned out to be 4400 nM.
For the molecule `O=C1Nc2ccc(Cl)cc2C1=CNc1cc[nH]n1` [Example 9, 5-Chloro-3-[(1H-pyrazol-3-ylamino)-methylene]-1,3-dihydro-indol-2-one], in experiment [1], the IC50 worked out at 1130 nM. In addition, in experiment [2] (Homo sapiens), the inhibition at 10 µM worked out at 90% and the IC50 was 6140 nM.
For the molecule `Cc1cc(NC=C2C(=O)Nc3ccccc32)n[nH]1` [Example 23, 3-[(5-Methyl-1H-pyrazol-3-ylamino)-methylene]-1,3-dihydro-indol-2-one], the half-maximal inhibitory concentration (IC50) in experiment [1] was 370 nM; in experiment [2], 900 nM; in experiment [2] (Homo sapiens), no more than 1000 nM. Besides, the inhibition at 10 µM in experiment [2] (Homo sapiens) is 94.7%.
`O=C1Nc2cc(F)ccc2C1=CNc1cc(-c2ccccc2)[nH]n1` [Example 51, 6-Fluoro-3-[(5-phenyl-1H-pyrazol-3-ylamino)-methylene]-1,3-dihydro-indol-2-one]: the results for the half-inhibitory concentration (IC50) in experiment [1] and in experiment [2] (Homo sapiens) were 1210 nM and 2320 nM, respectively.
In the case of `O=C1Nc2cc(F)ccc2C1=CNc1cc(-c2ccco2)[nH]n1` [Example 50, 6-Fluoro-3-[(5-furan-2-yl-1H-pyrazol-3-ylamino)-methylene]-1,3-dihydro-indol-2-one], the IC50 in experiment [1] was 980 nM; in experiment [2] it was 590 nM; in experiment [2] (Homo sapiens), no more than 1000 nM.
Consider `CC(C)(C)c1cc(NC=C2C(=O)Nc3ccccc32)n[nH]1` [Example 22, 3-[(5-tert-Butyl-1H-pyrazol-3-ylamino)-methylene]-1,3-dihydro-indol-2-one], for which the 50% inhibitory concentration (IC50) was 5780 nM in experiment [1] and 6090 nM in experiment [2] (Homo sapiens). Besides, in experiment [2] (Homo sapiens), the inhibition at 10 µM was 98.3%.
`CCOc1ccc(-c2cc(NC=C3C(=O)Nc4ccccc43)[nH]n2)cc1` [Example 38, 3-{[5-(4-Ethoxy-phenyl)-2H-pyrazol-3-ylamino]-methylene}-1,3-dihydro-indol-2-one] displayed an IC50 in experiment [1] of 9900 nM. Besides, in experiment [2] (Homo sapiens), the inhibition at 10 µM turned out to be 70% and the IC50 was 6750 nM.
On to `COc1ccc(Cc2cc(NC=C3C(=O)Nc4ccccc43)n[nH]2)cc1` [Example 5, 3-{[5-(4-Methoxy-benzyl)-1H-pyrazol-3-ylamino]-methylene}-1,3-dihydro-indol-2-one], for which the IC50 in experiment [1] is 180 nM; in experiment [2], 500 nM; in experiment [2] (Homo sapiens), no more than 1000 nM. The inhibition at 10 µM in experiment [2] (Homo sapiens) was determined as 98%.
Molecule `Cc1cc(C)cc(-c2cc(NC=C3C(=O)Nc4ccccc43)[nH]n2)c1` [Example 32, 3-{[5-(3,5-Dimethyl-phenyl)2H-pyrazol-3-ylamino]-methylene}-1,3-dihydro-indol-2-one] registered a half-maximal inhibitory concentration (IC50) in experiment [1] of 9540 nM. The inhibition at 10 µM in experiment [2] (Homo sapiens) was 46.1%.
As to `Cc1oc(C(C)(C)C)cc1-c1cc(NC=C2C(=O)Nc3cc(F)ccc32)[nH]n1` [Example 52, 3-{[5-(5-tert-Butyl-2-methyl-furan-3-yl)-2H-pyrazol-3-ylamino]-methylene}-6-fluoro-1,3-dihydro-indol-2-one], the half-inhibitory concentration (IC50) in experiment [1] worked out at 82300 nM; in experiment [2] (Homo sapiens), 3400 nM.
`O=C1Nc2ccccc2C1=CNc1cc(-c2ccccc2)[nH]n1` [Example 2, 3-[(5-Phenyl-H-pyrazol-3-ylamino)-methylene]-1,3-dihydro-indol-2-one]: the IC50 is 580 nM in experiment [1] and 1330 nM in experiment [2] (Homo sapiens). The inhibition at 10 µM in experiment [2] (Homo sapiens) worked out at 90.5%.
The corresponding values for `Cc1cc(NC=C2C(=O)Nc3ccccc32)no1` [Example 44, 3-[(5-Methyl-isoxazol-3-ylamino)-methylene]-1,3-dihydro-indol-2-one] are 650 nM, 2550 nM and 97%.
The corresponding values for `Cc1ccc(-c2cc(NC=C3C(=O)Nc4ccccc43)n[nH]2)cc1` [Example 3, 3-[(5-P-Tolyl-1H-pyrazol-3-ylamino)-methylene]-1,3-dihydro-indol-2-one] are 840 nM, 2440 nM and 74%.
As for `O=C1Nc2ccccc2C1=CNc1ccon1` [Example 43, 3-(Isoxazol-3-ylaminomethylene)-1,3-dihydro-indol-2-one], half-maximal inhibition in experiment [1] (IC50) was put at 2320 nM. Further, in experiment [2] (Homo sapiens), the inhibition at 10 µM came to 62.4% and the IC50 amounted to 7560 nM.
Turning to `O=C1Nc2cc(F)ccc2C1=CNc1cc[nH]n1` [Example 53, 6-Fluoro-3-[(1H-pyrazol-3-ylamino)-methylene]-1,3-dihydro-indol-2-one], the figures for the half-inhibitory concentration (IC50) in experiment [1] and in experiment [2] (Homo sapiens) were 2220 nM and 1380 nM, respectively.
`Cc1noc(NC=C2C(=O)Nc3ccccc32)c1C` [Example 45, 3-[(3,4-Dimethyl-isoxazol-5-ylamino)-methylene]-1,3-dihydro-indol-2-one]: it took 980 nM to reach half-maximal inhibition in experiment [1] (IC50). Also, in experiment [2] (Homo sapiens), the inhibition at 10 µM came out at 84.9% and the half-inhibitory concentration (IC50) amounted to 2550 nM.
For the molecule `O=C1Nc2ccc(F)cc2C1=CNc1cc(-c2ccco2)[nH]n1` [Example 27, 5-Fluoro-3-[(5-furan-2-yl-1H-pyrazol-3-ylamino)-methylene]-1,3-dihydro-indol-2-one], the results for the IC50 in experiment [1], in experiment [2] and in experiment [2] (Homo sapiens) were 530 nM, 1050 nM and no more than 1000 nM, respectively. Also, the inhibition at 10 µM in experiment [2] (Homo sapiens) turned out to be 98.6%.
